Consider one compound from patent US20240217985A1, “CRYSTALLINE FORM OF AN MDM2-p53 INHIBITOR AND PHARMACEUTICAL COMPOSITIONS” (Boehringer Ingelheim International GmbH, priority 2022, published 2024).

Series [1] can be described thus: Lipophilicity at physiological pH. In kind it is physicochemical.
Series [2] can be described thus: Aqueous solubility and BCS classification. In kind it is physicochemical.

On to `Cc1c(C(=O)O)ccc2c3n(nc12)[C@@H]1[C@H](C3)N(CC2CC2)[C@@]2(C(=O)Nc3cc(Cl)ccc32)[C@H]1c1cccc(Cl)c1F` [Compound A, (2′S,3′S,3a′S,10a′S)-6-chloro-3′-(3-chloro-2-fluorophenyl)-1′-(cyclopropylmethyl)-6′-methyl-2-oxo-1,2,3′,3a′,10′,10a′-hexahydro-1′H-spiro[indole-3,2′-pyrrolo[2′,3′:4,5]pyrrolo[1,2-b]indazole]-7′-carboxylic acid], for which, in series [1], the lipophilicity entry is “lipophilic”. Also, the aqueous solubility entry in series [2] (across the physiological pH range) was “low”. Besides, the “biopharmaceutical classification system class” value in series [2] (class II = low solubility, high permeability) is on record as “class II”.
